How the values were obtained:
[1] = Decomposition of probe 1b by LC-MS; assay type: physicochemical
Description: Bicyclic aromatic azides are known to easily decompose by thermolysis or photolysis through a highly reactive nitrene intermediate (FIG. 12).
Thus we analyzed the decomposition of 1b using LC-MS (FIG. 13). […] The compounds were monitored at 350 nm by using an Agilent SB C8 50×4.6 mm column. (a) 1b. (b) Cycloaddition reaction with 7. (c) After 12 h incubation without 7. (d) The synthesized 4-amino derivative 1c (1). See typical experimental procedure of cycloaddition for the reaction conditions.
In the presence of 6-alkyne fucose 2b, probe 1b was completely converted into the product 3b. However, without 6-alkyne fucose […], probe 1b decomposed into a fluorescent compound with a molecular weight corresponding to the 4-amino derivative 1c ([M+H]^+ 241; ca. 80% conversion after 12 h incubation at room temperature).

[2] = tested on: human alpha1-acid glycoprotein (AGP); assay: Fluorescent labeling of AGP fucosylated by FucT V, SDS/PAGE visualized by UV light; assay type: biochemical; conditions: AGP fucosylated with FucT V and GDP-fucose analog 8, 9 or 10, then labeled with 1a or 1b
Text: (§1) Briefly, fucose analogs 4 and 5 are converted to the corresponding 1-bromides, which then are substituted directly by a phosphate group. […] Therefore, TiBr4 is used instead, as described by Srivastava. The fucose-1-phosphates are converted to the corresponding GDP-fucose analogs by using 1H-tetrazole as a catalyst. The tolerability of GDP-fucose analogs 8 and 9 for human alpha-1,3-fucosyltranseferases (FucTs) II-VII is confirmed by using a standard microtiter plate assay. They are then used to elaborate the glycoconjugate substrate, human alpha1-acid glycoprotein (AGP), an acute-phase protein. As fucosylation of AGP is associated with inflammatory diseases, the degree of fucosylation of AGP could be a potential diagnostic or prognostic marker. AGP was fucosylated by using FucT V in the presence of GDP-fucose analogs 8 or 9. After gel filtration, the fucosylated AGP is labeled by using the corresponding naphthalimide 1a or 1b for 4 h at room temperature. Labeled protein is analyzed by SDS/PAGE and visualized by UV light (365 nm). […] Treated protein was separated by SDS/PAGE and visualized by UV light (Top) and Coomassie blue staining (CBB) (Middle). (Bottom) Modified GDP-fucose.
Human alpha1-acid glycoprotein (0.33 mg/mL), pretreated with alpha-fucosidase, was incubated with human alpha-1,3-fucosyltransferase V (100 mU/mL) in MOPS buffer (50 mM, pH 7.2) containing 150 mM NaCl, 10 mM MnCl2, 4 mM ATP, 0.2 mM GDP-fucose analog (8-10). After incubation at 37° C. for 8 h, additional GDP-fucose derivative (final 0.4 mM) was added and the reaction mixture was incubated at 37° C. for 12 h. […]
The fucosylated glycoconjugate was dissolved in HEPES buffer (50 mM, pH 7.6), and added to a solution containing CuSO4 (0.2 mM), 1.0 mM sodium ascorbate, the tris(triazolyl)amine ligand (20) (0.2 mM, stock in DMSO), and the appropriate naphthalimide ligation probe 1a or 1b (0.1 mM, stock in DMSO, final concentration of DMSO; 10%)). After 1 h at room temperature, the mixture was passed through NAP-5 column in water and lyophilized, and analyzed by SDS-PAGE.

[3] = Fluorescence spectra and quantum yields of probes and click products; assay type: physicochemical; conditions: before click reaction
Description: Reactivity and click-activated fluorogenic properties of compounds 1a and 1b were tested by performing a Cu(I)-catalyzed azide-alkyne [3+2] cycloaddition (CuAAC) with model fucose analogs 2a and 2b, respectively, as shown in FIG. 3. […] As expected, the ligation reactions produced in a significant increase in fluorescence intensity. The emission maximum of 3a was 462 nm with a quantum yield of 0.36 when excited at 357 nm. […] Unfortunately, the reaction rate between alkyne probe 1a and azidofucose 2a was very slow. Although the reaction of azido probe 1b was completed in <30 min. only 10% of 1a was converted to 3a after 24 h by using the same conditions (monitored by LC-MS). […]
All chemicals were purchased as reagent grade and used without further purification. Reactions were monitored with analytical thin-layer chromatography (TLC) on silica gel 60 F254 plates and visualized under UV (254 nm) and/or by staining with 5% sulfuric acid or acidic ceric ammonium molybdate. ^1H— or ^13C-NMR spectra were measured on a Bruker DRX-500 or DRX-600 using CDCl3 or DMSO-d6 as the solvent (1H, 500 or 600 MHz; ^13C, 125 or 150 MHz). Chemical shifts (in ppm) were determined relative to either tetramethylsilane (0 ppm) or deuterated chloroform (77 ppm). […] Fluorescent excitation and emission were recorded using a HITACHI F-2000 fluorescence spectrophotometer. […]

[4] = tested on: human alpha-1,3-fucosyltranseferases (FucTs) II-VII; assay: Standard microtiter plate assay of tolerability of GDP-fucose analogs for fucosyltransferases; assay type: biochemical
Text: as §1

| decomposition to 4-amino derivative 1c, conversion ([1]; after 12 h incubation at room temperature, without 6-alkyne fucose) | fluorescence of parent probe [3] | SMILES | stability of probe during labeling ([1]; during AGP labeling reaction) | fluorescent band of labeled AGP on SDS/PAGE under UV light (365 nm) [2] | tolerability as substrate for FucTs [4] |
| --- | --- | --- | --- | --- | --- |
| ca. 80% | no fluorescence | CCN1C(=O)c2cccc3c(N=[N+]=[N-])ccc(c23)C1=O [Compound 1b, 4-Azido-N-ethyl-1,8-naphthalimide] | slowly decomposed into a strongly fluorescent 4-amino derivative | clear fluorescent bands |  |
|  |  | C#C[C@@H]1O[C@H](OP(=O)(O)OP(=O)(O)OC[C@H]2O[C@@H](n3cnc4c(=O)[nH]c(N)nc43)[C@H](O)[C@@H]2O)[C@@H](O)[C@H](O)[C@@H]1O.CCN(CC)CC [Compound 8, Guanosine 5′-diphospho-6,7-deoxy-beta-L-galacto-hept-6-ynopyranoside triethylammonium salt] |  |  | confirmed |

Reference: US8329413B2, “Glycoproteomic probes for fluorescent imaging of fucosylated glycans in vivo” (Academia Sinica, priority 2007, dated 2012)
